pIC50: −log10 of the molar value.
Legend:
[1] = molecular target: Recombinant wild type LRRK2 protein (Homo sapiens (Human), UniProt Q5S007); experiment: LRRK2 kinase activity, LanthaScreen TR-FRET assay (wild type); format: biochemical; conditions: LRRKtide 400 nM, 25 μM ATP, 60 min; read-out: LRRK2 WT IC50
Description: (§1) LRRK2 kinase activity was measured using a LanthaScreen™ Kinase Activity Assay from ThermoFisher Scientific. Recombinant wild type or G2019S-LRRK2 protein (Life Technologies, PR8604B or PV4881, respectively), was incubated with a fluorescein-labeled peptide substrate called LRRKtide that is based upon ezrin/radixin/moesin (ERM) (Life Technologies, PV4901) in the presence of ATP and serially diluted compound. […] Compound-dependent inhibition of the TR-FRET signal was used to generate a concentration-response curve for IC50 determination.
(§2) After 60 min incubation at room temperature, the reaction was stopped by addition of 10 μL of 2× stop solution containing a final concentration of 2 nM anti-pERM antibody and 10 mM EDTA. […] The ratio of the 520 nm and 495 nm emission was used to analyze the data.

[2] = molecular target: Recombinant G2019S-LRRK2 protein (Homo sapiens (Human), UniProt Q5S007, G2019S); experiment: LRRK2 kinase activity, LanthaScreen TR-FRET assay (G2019S); format: biochemical; conditions: LRRKtide 400 nM, 25 μM ATP, 60 min
Sequence of Recombinant G2019S-LRRK2 protein (Q5S007 whole entry G2019S): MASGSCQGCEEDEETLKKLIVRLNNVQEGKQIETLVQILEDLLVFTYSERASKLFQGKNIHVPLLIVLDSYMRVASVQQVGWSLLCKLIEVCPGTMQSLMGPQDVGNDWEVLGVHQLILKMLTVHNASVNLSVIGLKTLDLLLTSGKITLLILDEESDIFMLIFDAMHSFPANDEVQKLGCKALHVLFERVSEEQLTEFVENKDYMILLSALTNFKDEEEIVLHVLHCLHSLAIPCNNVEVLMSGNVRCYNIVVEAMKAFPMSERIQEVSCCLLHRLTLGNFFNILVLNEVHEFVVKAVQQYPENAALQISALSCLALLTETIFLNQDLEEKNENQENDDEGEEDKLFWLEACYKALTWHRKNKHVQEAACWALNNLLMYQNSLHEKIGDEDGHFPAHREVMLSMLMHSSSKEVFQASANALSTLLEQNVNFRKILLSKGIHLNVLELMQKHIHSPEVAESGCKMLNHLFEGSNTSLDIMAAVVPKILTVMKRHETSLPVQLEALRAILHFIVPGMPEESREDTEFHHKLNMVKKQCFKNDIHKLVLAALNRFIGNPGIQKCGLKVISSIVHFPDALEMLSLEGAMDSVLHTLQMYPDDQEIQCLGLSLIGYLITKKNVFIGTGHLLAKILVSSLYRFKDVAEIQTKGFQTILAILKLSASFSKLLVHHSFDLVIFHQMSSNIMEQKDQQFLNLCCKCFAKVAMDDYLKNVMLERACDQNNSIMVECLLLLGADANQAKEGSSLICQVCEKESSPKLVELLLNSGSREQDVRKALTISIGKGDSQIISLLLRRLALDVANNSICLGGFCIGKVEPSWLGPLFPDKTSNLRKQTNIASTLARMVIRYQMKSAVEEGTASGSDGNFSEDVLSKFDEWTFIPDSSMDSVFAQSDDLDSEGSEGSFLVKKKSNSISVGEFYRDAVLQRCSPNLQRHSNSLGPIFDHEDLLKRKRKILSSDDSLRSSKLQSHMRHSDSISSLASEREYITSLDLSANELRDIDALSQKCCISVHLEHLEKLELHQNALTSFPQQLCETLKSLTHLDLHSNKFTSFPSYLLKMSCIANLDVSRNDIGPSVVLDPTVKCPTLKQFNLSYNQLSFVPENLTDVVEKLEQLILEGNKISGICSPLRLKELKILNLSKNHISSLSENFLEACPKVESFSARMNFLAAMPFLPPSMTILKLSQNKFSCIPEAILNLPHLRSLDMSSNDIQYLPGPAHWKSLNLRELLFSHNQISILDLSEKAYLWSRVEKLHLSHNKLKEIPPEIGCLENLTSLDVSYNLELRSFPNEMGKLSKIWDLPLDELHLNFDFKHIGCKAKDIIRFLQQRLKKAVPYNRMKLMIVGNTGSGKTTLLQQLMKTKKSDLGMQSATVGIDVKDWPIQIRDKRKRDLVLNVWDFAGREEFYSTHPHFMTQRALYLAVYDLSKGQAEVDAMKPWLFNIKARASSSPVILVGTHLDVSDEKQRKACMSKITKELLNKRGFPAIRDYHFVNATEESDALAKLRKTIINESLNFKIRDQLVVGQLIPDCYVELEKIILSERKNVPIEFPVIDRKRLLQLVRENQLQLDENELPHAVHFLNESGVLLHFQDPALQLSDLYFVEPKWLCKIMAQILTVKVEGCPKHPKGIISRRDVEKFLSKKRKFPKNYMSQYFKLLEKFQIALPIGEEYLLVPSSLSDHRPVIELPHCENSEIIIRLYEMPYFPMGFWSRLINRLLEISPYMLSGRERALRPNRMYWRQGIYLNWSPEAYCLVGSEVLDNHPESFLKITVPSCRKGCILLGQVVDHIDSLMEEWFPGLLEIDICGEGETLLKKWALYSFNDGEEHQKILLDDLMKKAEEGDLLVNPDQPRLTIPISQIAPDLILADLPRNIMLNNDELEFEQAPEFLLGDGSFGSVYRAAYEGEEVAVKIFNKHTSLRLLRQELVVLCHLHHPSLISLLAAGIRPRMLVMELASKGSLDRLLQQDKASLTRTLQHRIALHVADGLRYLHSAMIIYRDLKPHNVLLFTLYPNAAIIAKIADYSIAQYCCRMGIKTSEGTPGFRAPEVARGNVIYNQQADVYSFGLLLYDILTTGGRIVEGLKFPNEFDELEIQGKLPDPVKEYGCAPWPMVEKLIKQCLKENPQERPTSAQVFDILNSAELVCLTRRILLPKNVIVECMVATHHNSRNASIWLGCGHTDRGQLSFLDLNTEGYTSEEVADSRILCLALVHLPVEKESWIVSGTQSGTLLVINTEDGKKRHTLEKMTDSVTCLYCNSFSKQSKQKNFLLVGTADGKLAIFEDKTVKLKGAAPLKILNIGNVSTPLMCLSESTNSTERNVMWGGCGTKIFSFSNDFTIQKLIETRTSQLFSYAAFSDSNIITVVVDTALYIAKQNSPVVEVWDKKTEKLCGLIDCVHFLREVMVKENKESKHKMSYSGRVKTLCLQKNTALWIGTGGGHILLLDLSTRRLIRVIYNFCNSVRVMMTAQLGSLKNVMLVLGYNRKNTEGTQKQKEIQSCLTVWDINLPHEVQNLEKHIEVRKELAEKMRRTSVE
Description: as §1, §2

Sequence of Recombinant wild type LRRK2 protein (Q5S007 whole entry): as the sequence (Q5S007 whole entry G2019S) above, with S2019G counted along it

Compound	pIC50 [1]	pIC50 [2]
Cc1cc(-c2n[nH]c3ccc(NC(=O)c4ncc(C#N)cc4C)cc23)ccn1 [Example 74, 5-Cyano-3-methyl-N-(3-(2-methylpyridin-4-yl)-1H-indazol-5-yl)picolinamide]	> 7.00	> 7.00
CCc1c(C#N)cccc1C(=O)Nc1ccc2[nH]nc(-c3ccoc3)c2c1 [Example 75, 3-Cyano-2-ethyl-N-(3-(furan-3-yl)-1H-indazol-5-yl)benzamide]	> 7.00	> 7.00
Cc1cc(C#N)cnc1C(=O)Nc1ccc2[nH]nc(-c3coc(C#N)c3)c2c1 [Example 76, 5-Cyano-N-(3-(5-cyanofuran-3-yl)-1H-indazol-5-yl)-3-methylpicolinamide]	> 7.00	> 7.00
N#Cc1cccc(C(=O)Nc2ccc3[nH]nc(-c4ccoc4)c3c2)c1F [Example 77, 3-Cyano-2-fluoro-N-(3-(furan-3-yl)-1H-indazol-5-yl)benzamide]	> 7.00	> 7.00
Cc1cc(C#N)cc(C(=O)Nc2ccc3[nH]nc(-c4ccoc4)c3c2)n1 [Example 78, 4-Cyano-N-(3-(furan-3-yl)-1H-indazol-5-yl)-6-methylpicolinamide]	6.00 to 7.00	> 7.00
N#Cc1ccnc(C(=O)Nc2ccc3[nH]nc(-c4ccoc4)c3c2)c1F [Example 79, 4-Cyano-3-fluoro-N-(3-(furan-3-yl)-1H-indazol-5-yl)picolinamide]	6.00 to 7.00	6.00 to 7.00
Cc1cc(C#N)cnc1C(=O)Nc1cc(C)c2[nH]nc(-c3ccoc3)c2c1 [Example 80, 5-Cyano-N-(3-(furan-3-yl)-7-methyl-1H-indazol-5-yl)-3-methylpicolinamide]	5.00 to 6.00	6.00 to 7.00
Cc1nn(C)c(C#N)c1C(=O)Nc1ccc2[nH]nc(-c3ccoc3)c2c1 [Example 81, 5-Cyano-N-(3-(furan-3-yl)-1H-indazol-5-yl)-1,3-dimethyl-1H-pyrazole-4-carboxamide]	> 7.00	> 7.00
N#Cc1cc(C(=O)Nc2ccc3[nH]nc(-c4ccoc4)c3c2)no1 [Example 82, 5-Cyano-N-(3-(furan-3-yl)-1H-indazol-5-yl)isoxazole-3-carboxamide]	> 7.00	> 7.00
CCc1cc(C#N)cnc1C(=O)Nc1ccc2[nH]nc(-c3ccoc3)c2c1 [Example 83, 5-Cyano-3-ethyl-N-(3-(furan-3-yl)-1H-indazol-5-yl)picolinamide]	6.00 to 7.00	> 7.00
C=Cc1cc(C#N)cnc1C(=O)Nc1ccc2[nH]nc(-c3ccoc3)c2c1 [Example 84, 5-Cyano-N-(3-(furan-3-yl)-1H-indazol-5-yl)-3-vinylpicolinamide]	6.00 to 7.00	> 7.00
Cc1cc(C(=O)Nc2ccc3[nH]nc(-c4ccoc4)c3c2)nc(C)c1C#N [Example 85, 5-cyano-N-(3-(furan-3-yl)-1H-indazol-5-yl)-4,6-dimethylpicolinamide]	5.00 to 6.00	> 7.00
N#Cc1cccc(C(=O)Nc2ccc3[nH]nc(-c4ccoc4)c3c2)c1Cl [Example 86, 2-chloro-3-cyano-N-(3-(furan-3-yl)-1H-indazol-5-yl)benzamide]	> 7.00	> 7.00
Cc1cc(C#N)cnc1C(=O)Nc1ccc2[nH]nc(I)c2c1 [Example 87, 5-cyano-N-(3-iodo-1H-indazol-5-yl)-3-methylpicolinamide]	6.00 to 7.00	> 7.00
Cc1c(C#N)cccc1C(=O)Nc1cc(C)c2[nH]nc(-c3ccoc3)c2c1 [Example 88, 3-cyano-N-(3-(furan-3-yl)-7-methyl-1H-indazol-5-yl)-2-methylbenzamide]	5.00 to 6.00	6.00 to 7.00
N#Cc1cccc(C(=O)Nc2ccc3[nH]nc(-c4ccoc4)c3c2)c1Br [Example 89, 2-bromo-3-cyano-N-(3-(furan-3-yl)-1H-indazol-5-yl)benzamide]	> 7.00	> 7.00
Cc1c(C(=O)Nc2ccc3[nH]nc(-c4ccoc4)c3c2)c(C#N)nn1C [Example 90, 3-Cyano-N-(3-(furan-3-yl)-1H-indazol-5-yl)-1,5-dimethyl-1H-pyrazole-4-carboxamide]	> 7.00	> 7.00
N#Cc1cc(C(=O)Nc2ccc3[nH]nc(-c4ccoc4)c3c2)ns1 [Example 91, 5-Cyano-N-(3-(furan-3-yl)-1H-indazol-5-yl)isothiazole-3-carboxamide]	> 7.00	> 7.00
Cc1c(C#N)nn(C)c1C(=O)Nc1ccc2[nH]nc(-c3ccoc3)c2c1 [Example 92, 3-Cyano-N-(3-(furan-3-yl)-1H-indazol-5-yl)-1,4-dimethyl-1H-pyrazole-5-carboxamide]	6.00 to 7.00	> 7.00

From patent US11427558B1, “Indazoles and azaindazoles as LRRK2 inhibitors” (ESCAPE Bio, Inc., priority 2019, dated 2022)
